Measurements: patent EP2974714B1, “USE OF DERIVATIVES WITH C-O-P BONDS IN PATIENTS WITH RENAL FAILURE” (LABORATORIS SANIFIT, S.L., priority 2013, dated 2014)

Assays:
[1] = system: vit D-induced cardiovascular calcification in rats; experiment: Inhibition of vit D-induced (300,000 IU/kg x 3) cardiovascular calcification by s.c. IP6; type: in vivo, male SD rats
Description: Experimental: male SD rats were divided into 9 groups. Two of said groups (sham and control groups) received s.c. saline 2 ml/kg; 6 groups received s.c. […] One group was treated with a s.c. Alzet pump loaded with 200 mg/ml IP6. Calcification was induced by oral administration of 300,000 IU/kg vitamin D (2 ml/kg) for 3 days starting on treatment day 3. […] The calcium content in heart, aorta and kidneys was determined after treatment for 7 days.

[2] = Release of IP6 from the HAP surface; type: binding; conditions: after incubation for 2 days in IP6-free solution
Description: Experimental: 130 mg HAP was incubated in triplicate with 7.6 µM IP6, at 37°C, pH 7.4, for different time intervals while stirring continuously. Subsequently, the HAP with adsorbed IP6 was placed in an IP6-free solution and the amount of IP6 released from the surface thereof evaluated at different timepoints.

[3] = In vitro affinity (adsorption) of IP6 for hydroxyapatite; type: binding; conditions: for maximum adsorption of IP6 on the HAP surface: 7.6 µM IP6 for 8 hours
Description: […] The total quantity of IP6 bound to the surface of the target (HAP) was quantified.
To characterise the behaviour of IP6 binding, the EC50 and Emax for the adsorption thereof on HAP were calculated. This was performed using a non-linear regression model (Log[agonist] vs. response - slope variable; GraphPad Prism software).

[4] = system: tissue calcification in an animal model of chronic renal impairment (adenine); experiment: Adenine model, bolus-type s.c. administration; type: in vivo, male Wistar rats; conditions: s.c. bolus 3, 10 and 30 mg/kg, 28 days, adenine uraemic rats
Description: Experimental: CKD was induced in 4 groups (n=12) of male Wistar rats by oral (p.o.) treatment with adenine (600 mg/kg/day) daily for 10 days. After treatment with adenine, the rats received alpha-calcidol at a dose of 300 ng/kg (3x/week, p.o.) until day 28. From day 0 until sacrifice (day 28), the animals were treated with a 2 ml/kg s.c. bolus of 0, 3, 10 and 30 mg/kg IP6. At each treatment, 3 additional animals were included to evaluate the […] for IP6. After 28 days the aorta, heart and right kidney were collected, and the tissue calcium content determined.

[5] = system: vitamin D-induced cardiovascular calcification in rats; experiment: Inhibition of vit D-induced (75,000 IU/kg x 5) cardiovascular calcification by intravenous IP6; type: in vivo, male Sprague Dawley (SD) rats
Description: Experimental: male Sprague Dawley (SD) rats were divided into 7 groups and IP6 was administered intravenously daily for 14 days at a dose of 0, 0.05, 0.1, 0.5, 1, 5 and 10 mg/kg. Calcification was induced by oral administration of 75,000 IU/kg vitamin D on treatment days 3 to 7. Samples were collected. On day 14 the aortas and hearts of the animals were collected to quantify calcification.

cardiovascular function = experiment: Cardiovascular function after 2 h intravascular infusion in conscious dogs by telemetry; type: in vivo; conditions: for peak IP6 levels: dogs
Description: Experimental: 4 male dogs were treated with 3, 10 and 30 mg/kg IP6 by infusion for 2 h in a Latin square design. A washout period of one week was performed between doses. ECGs were measured telemetrically at 1 h and 20 minutes prior to infusion and 5, 15, 30, 45 minutes, 1, 2, 6 and 24 h post-infusion. In a second stage, blood samples were taken for PK, for the same doses, at 20 minutes prior to infusion and 5, 15, 30 minutes and 1, 1.5, 2, 3 and 6 h post-infusion. In this case the washout period between doses was 2 days. Total and free calcium in the blood samples was also measured.

[6] = system: progression of vitamin D-induced vascular calcification; experiment: Progression of vitamin D-induced calcification (100,000 IU/kg x 3), rat model for 2 weeks; type: in vivo, SD rats; conditions: highest dose (60 mg/kg s.c.), days 5 to 14
Description: Experimental: 48 SD rats were treated x3 with vitamin D (s.c. 100,000 IU/kg) to induce tissue calcification. Calcification was allowed to progress for 5 days, and treatment with 0, 10 or 60 mg/kg IP6 s.c. was administered from day 5 until day 14. Calcification of the kidneys and heart was evaluated.

proteins = experiment: Binding of IP6 to proteins (dialysability); type: in vitro ADME
[7] = In vitro binding kinetics of IP6 to HAP; conditions: 130 mg HAP
Description: Experimental: 130 mg HAP was incubated (in triplicate) with 7.6 µM IP6, at 37°C, pH 7.4, for different time intervals while stirring continuously.

[8] = PK profile of IP6 s.c. in rats with normal and diminished kidney function; type: in vivo, Wistar rats
Description: Experimental: a single s.c. dose (10 mg/kg) was administered to rats with normal kidney function. Plasma samples were obtained at different timepoints up to 60 minutes. A different group of Wistar rats received oral treatment with adenine 600 mg/kg (p.o.) for 10 days to induce renal impairment. Alpha-calcidol (300 ng/kg) was administered on days 11 and 13 and plasma samples were collected at different timepoints up to 60 minutes on day 14. The plasma IP6 concentrations were quantified for both groups.

[9] = HAP crystallisation induction period (synergy with other treatments); type: physicochemical
Description: Experimental: hydroxyapatite (HAP) was crystallised by mixing appropriate concentrations of calcium and phosphate at pH 7.4. The effect of cinacalcet and sevelamer was simulated by suitably modifying the calcium and phosphate concentrations. The induction period (time required for HAP to begin to crystallise) was recorded as the analytical signal.

[10] = i.v. dose of between 1 and 10 mg/kg daily for 14 days
[11] = normal Wistar rats, single s.c. dose 10 mg/kg
[12] = uraemic rats (adenine), s.c. 10 mg/kg

O=P(O)(O)O[C@H]1[C@H](OP(=O)(O)O)[C@@H](OP(=O)(O)O)[C@H](OP(=O)(O)O)[C@@H](OP(=O)(O)O)[C@H]1OP(=O)(O)O [IP6, inositol hexaphosphate]
reduction in calcification ([1]; prolonged administration, s.c. Alzet pump loaded with 200 mg/ml IP6): 85% | efficacy (inhibition of calcification) ([1]; s.c. doses of 60 and 100 mg/kg): approximately 60% | minimum dose that produced a significant effect on calcification ([1]; s.c., 7 days treatment): 10 mg/kg | EC50 for inhibition of aortic calcification ([1]; s.c., dose-response): 3.75 mg/kg | Emax for inhibition of aortic calcification ([1]; s.c., dose-response): 65.5% | IP6 remaining bound to the HAP surface [2]: 80% | maximum adsorption of IP6 on the HAP surface ([3]; 25 mg HAP): 6.42 mg | EC50 ([3]; 25 mg HAP, non-linear regression): 0.46 µM | EC50 ([3]; 75 mg HAP, non-linear regression): 0.96 µM | EC50 ([3]; 130 mg HAP, non-linear regression): 1.22 µM | maximum adsorption of IP6 on the HAP surface ([3]; 300 mg HAP): 4.8 mg | EC50 ([3]; 300 mg HAP, non-linear regression): 2.09 µM | IP6 concentration at saturation of adsorption on HAP ([3]; 37°C, pH 7.4): ≥ 7.6 µM | Emax for adsorption on HAP (saturation value) ([3]; non-linear regression): 6.42 mg/g | calcification inhibition (aorta, heart, right kidney) [4]: no evidence of calcification inhibition | effect on the mineral content of the aorta and heart ([5]; i.v. 0.05 to 0.5 mg/kg daily for 14 days): did not affect | reduction of calcification in aorta [5, 10]: up to 60% | reduction of calcification in heart [5, 10]: ≤ 68% | peak IP6 levels (cardiovascular function; 3 mg/kg infusion for 2 h): 27 µM | peak IP6 levels (cardiovascular function; 10 mg/kg infusion for 2 h): 150 µM | peak IP6 levels (cardiovascular function; 30 mg/kg infusion for 2 h): 482 µM | mean blood ionic calcium concentrations (cardiovascular function; infusion for 2 h, 3, 10 and 30 mg/kg): unaffected | state of health, weight, cardiorespiratory function, ECG, body temperature and total and free potassium in blood (cardiovascular function; infusion for 2 h, 3, 10 and 30 mg/kg (any dose)): relatively unaffected | inhibition of the progression of heart calcification [6]: 100% | inhibition of the progression of renal calcification [6]: 95% | binding of IP6 to proteins (proteins): 70-90% | compound available to be dialysed (proteins): 10-30% | time at which adsorption maximum is reached ([7]; 7.6 µM IP6, 37°C, pH 7.4): 60 min | share of maximum binding achieved ([7]; after 5 minutes, 7.6 µM IP6): Around 80% | duration of measurable levels [8, 11]: at least 30 minutes | peak concentration (plasma IP6) [8, 11]: 7.4 µM | time of peak concentration post-administration [8, 11]: 15 min | peak concentration (plasma IP6) [8, 12]: 1.8 µM | time of peak concentration post-administration [8, 12]: 5 min | induction time (time required for HAP to begin to crystallise) ([9]; 11.4 µM IP6, pH 7.4, control 8 minutes): 28 min | effect of adding IP6 to simulated cinacalcet and sevelamer ([9]; IP6 0-11.4 µM with constant simulated concentration of cinacalcet or sevelamer): clear synergistic effect
